Source: patent US20230390386A1, “REPLICATION-DEFECTIVE VACCINES AND USES THEREOF” (priority 2020, published 2023)

Key:
HSV-2 GFP = HSV-2 GFP fluorescence imaging and growth curve (plaque assay) in ARPE-19 cells after CM treatment; type: cell-based, human simplex virus-2; details: for HSV-2-GFP infection and growth: ARPE-19 cells
Protocol: Human Simplex Virus (HSV) treatment with CM: The ARPE-19 (ATCC CRL-2302) cells were grown in 12 well plate in DMEM with 10% FBS and 1% P/S. […] were treated with different concentration of centanamycin (100 μM, 10 μM, 1μM, 0.1 μM, and 0.01 μM) for two hours at room temperature. The CM treated HSV were washed 3 times with cDMEM after treatment to remove CM and added to the ARPE-19 cells in triplicate at an MOI of 0.2. The HSV viruses were collected at 6, 12, 18, 24, 30, 36, and 42 hours of post-infection. The virus titer was determined by plaque assays using ARPE-19 cells.
In this study, the HSV-2 GFP was treated with the different concentrations of CM ranging from 100 μM to 0.01 μM (10-fold serial dilution at each concentration) and determined the growth curve using plaque assay (FIG. 2B). […] A 10 μM CM treatment of HSV-2-GFP leads to the virus attenuation and the virus was not able to spread to adjacent cells (FIG. 2A). […] The virus treatment with 1 μM CM lead to viral infection in host cells and extremely slowly spread to neighbor cells (FIG. 2A).

HCMV gDNA = assay: Analysis of CM-treated viral gDNA (agarose gel, EcoR1 digestion, 50° C. incubation); design: species or system human cytomegalovirus
Protocol: Analysis of CM and viral gDNA: To see any effect of CM on the HCMV gDNA, the gDNA was analyzed by agarose gel electrophoresis, restriction digestion, and thermal incubation at 50° C. The HCMV was grown in ARPE-19 cells and virus particles were purified through sucrose gradient using ultracentrifugation. HCMV gDNA was extracted and concentration was determined by OD at 260/280. Approximately, 10 μg of HCMV gDNA was incubated with 10 μM CM at RT for 1 hour and 10 μg of HCMV gDNA was treated with vehicle control without CM. The treated gDNA was analyzed by the agarose gel electrophoresis to see any effect of CM on the HCMV gDNA. In a separate experiment, the […] treated HCMV gDNA was incubated at 50° C. for 30 minutes to check the alkylation of DNA is thermolabile or not. Untreated HCMV gDNA was also treated similarly. In another, 3 μg of CM treated and untreated HCMV gDNA was digested with EcoR1 overnight at 37° C. and analyzed by 0.6% agarose gel electrophoresis.
To understand the mechanism behind CM mediated attenuation of the virus, CM-treated viral gDNA was analyzed using agarose gel electrophoresis, restriction digestion, and heat-labile fragmentation assays. The AD169 viral gDNA was treated with 1 μM CM for two hours at RT and then separated with a 0.6% agarose gel. Untreated AD169 viral gDNA was used as a control. […] To further understand the effect of CM on the viruses, viral gDNA was isolated and treated with CM for two hours at RT followed by digestion with the restriction enzymes EcoR1. […] However, the CM treated viruses were alkylated efficiently as compared to the control which was observed by the DNA fragmentation during incubation at 50° C. while control untreated viruses have intact DNA (FIG. 3C).

MCMV-Luc = MCMV-Luc growth curve in NIH 3T3 cells after CM treatment; type: cell-based, mouse cytomegalovirus; details: two hours at RT, MOI 0.1
Protocol: Previous studies in the current disclosure had been conducted in vitro. […] This study would identify a CM concentration required to attenuate the MCMV. For this assay, a luciferase-expressing version of MCMV, MCMV-Luc was used, and viral growth was measured as photon counts during intravital imaging using an in vivo imaging system (IVIS). The MCMV-Luc was treated with different concentrations of CM at RT for two hours and then added to NIH 3T3 cells established in 24 well plates in triplicate at a multiplicity of infection (MOI) of 0.1. The MCMV growth curve was determined by measuring the luciferase expression every 24 h using IVIS. […] This information was used to perform In vivo analysis of CM effect on the MCMV replication in the mice.

E. coli = E. coli growth assay (OD) after CM treatment; type: cell-based; details: two hours at RT
Protocol: […] Replicate samples were performed in triplicate. The treated bacterial cells were then added to 96 well, round-bottom plates, which were then incubated at 37° C. in a shaking incubator. The bacterial OD was measured in Glomax Explorer (Promega) every hour to determine the bacterial growth.
In order to observe the effect of CM on the rate of bacterial growth, a series of studies were conducting observing cultures of treated E. coli (FIG. 7). […] Each treatment condition was repeated in triplicate. The treated E. coli were then added to 96 well round-bottom plates, and cultured at 37° C. in a shaking incubator. The bacterial OD was measured by a Glomax Explorer (Promega) every hour to determine the rate bacterial growth. […] Each data point on the graph in FIG. 7 represents the average of three separate measurements.

VZV-Luc = assay: CM treated VZV-Luc growth in human fetal skin implants of SCID-hu mouse model; type: in vivo; details: for VZV growth in implanted skin tissues: 10^3 PFU, 12 days
From the text: SCID mice of arbitrary sex, 6-8 weeks old were used to produce the SCID-hu mouse model by implanting human fetal skin under the mouse skin as described previously to study the therapeutic efficacy of CM on the VZV replication and attenuation. The human fetal skin tissues were acquired from Advance Biosciences Resources (Alameda, CA) and processed as described previously (Selariu, Anca et al. “ORF7 of varicella-zoster virus is a neurotropic factor.” Journal of virology vol. 86, 16 (2012): 8614-24.). The VZV-Luc was treated with CM of 10.0 μM, and 1.0 μM followed by washing with DMEM media to remove CM. The acyclovir (30 mg/kg) was used as a positive control. VZV-Luc treated with drug vehicle was used as a mock. The viral load was determined every 48 hours as total photon counts in the infected implanted tissues. The total photon counts were determined using IVIS imaging of infected animals as represented in FIGS. 10A and 10B. The image of one mouse from each group is shown in FIG. 10B after 12 days of post-treatment. Four weeks after implantation, the implanted human tissues were surgically exposed and inoculated with 10^3 PFU of VZV-Luc. Luciferase activity within the implants was measured every 48 h for 12 days using the IVIS200 imaging system and Live Image software.

[1] = VZV-Luc treated with 10.0 μM CM

## COc1cc2cc(C(=O)Nc3cc(N)c4ccccc4c3CCCl)[nH]c2c(OC)c1OC [CM, centanamycin]
HSV-2 GFP
  CM concentration needed to produce replication-defective HSV-2: 1 µM
HSV-2 GFP; virus treated with 1.0 μM CM
  HSV-2-GFP infection and growth: slower growth as compared to untreated
HSV-2 GFP; virus treated with 10 μM CM
  HSV-2-GFP infection and growth: able to infect the cells but not replicate
HSV-2 GFP; virus treated with 100 μM CM
  HSV-2-GFP infection and growth: completely inhibits the virus infection
HCMV gDNA; AD169 viral gDNA, 1 μM CM, two hours at RT
  Viral gDNA bands on 0.6% agarose gel, treated versus untreated: no big differences in the viral gDNA bands, mobility, and gel pattern
HCMV gDNA; CM two hours at RT, then EcoR1
  EcoR1 digestion pattern of CM treated viral gDNA: no major missing bands
HCMV gDNA; incubation at 50° C.
  Thermolabile alkylation: state of CM treated viral DNA on incubation at 50° C.: experienced fragmentation at 50 °C
MCMV-Luc; virus treated with 0.01 μM CM
  MCMV-Luc infection and replication (luciferase expression): able to grow and replicate but slower than untreated
MCMV-Luc; virus treated with 1.0 μM CM
  MCMV-Luc infection and replication (luciferase expression): allowed the virus to infect host cells but not replicate
MCMV-Luc; virus treated with 10 μM CM
  MCMV-Luc infection and replication (luciferase expression): did not allow the MCMV-Luc to infect the cells
E. coli; 0.01 μM CM
  E. coli growth in culture (OD): able to grow slowly in the culture
E. coli; 0.1 μM CM
  E. coli growth in culture (OD): able to grow slowly in the culture
E. coli; 10 μM CM
  E. coli growth in culture (OD): did not grow
E. coli; 100 μM CM
  E. coli growth in culture (OD): did not grow in the culture
VZV-Luc; VZV-Luc treated with 1.0 μM CM
  VZV growth in implanted skin tissues: growing very slowly and have growth defects
VZV-Luc; [1]
  Luciferase activity (viral load) in implanted tissues: no luciferase activity in implanted tissues
  VZV growth in implanted skin tissues: did not grow in skin implants
